Experiments:
Format in all cases: cell-based, Clostridium autoethanogenum
[1] = tested on: C. autoethanogenum DSM 23693; assay: Autotrophic growth and acetate production on CO/CO2/H2 gas mix with arginine supplementation; settings: for decrease of doubling time by arginine supplementation: vs control without arginine
Procedure: Growth was carried out in PETC-MES medium without yeast extract (Table 1) using standard anaerobic techniques (Hungate, Meth Microbiol, 3B: 117-132, 1969; Wolfe, Adv Microb Physiol, 6: 107-146, 1971) and 22 psi of CO/CO2/H2 gas mix (composition: 50% CO, 20% CO2, […], 28% N2) headspace pressure.
To study effect of supplementation with arginine, 5 g/L of arginine was added to the media and culture growth and metabolite production during autotrophic growth was compared to the control without arginine.
Growth was followed by measuring the optical density using a Thermo Genesys 20 spectrophotometer. […] Samples were prepared by diluting 400 μL with 100 μL of 5-sulfosalicylic acid solution (1% w/v in 1 M sulphuric acid), followed by a 3 minute centrifugation at 14,000 rpm; the supernatant was transferred to a glass vial for analysis. Separation was carried out with a 10 μL injection on to an Alltech IOA-2000 column (150 mm×6.5 mm×8 μm) at 0.7 mL/min and 65° C. under isocratic conditions, using 5 mM sulphuric acid mobile phase.
The experiment was carried out in two biological repeats with triplicate cultures (n=3) for each condition in a volume of 40 mL media in 1 L Schott bottles at 37° C. with orbital shaking (120 rpm, shake orbit). In each case, acetogenic strain C. autoethanogenum DSM 23693 was pre-cultured in PETC-MES without yeast extract to an OD600 nm of 0.3 and a single preculture was used for inoculation.
In the first experiment to the following conditions: PETC-MES without yeast extract+22 psi syngas (initial OD600 nm=0.005) and PETC-MES without yeast extract+22 psi syngas+5 g arginine/L (initial OD600 nm=0.005).
In the repeat of the experiment, a culture was also inoculated into arginine supplemented media but without the addition of CO/CO2/H2 gas (22 psi of 100% N2 as headspace). This experiment comprised the following three conditions: PETC-MES without yeast extract+22 psi syngas (initial OD600 nm=[…]), PETC-MES without yeast extract+22 psi syngas+5 g arginine/L (initial OD600 nm=0.003), and PETC-MES without yeast extract+5 g arginine/L (initial OD600 nm=0.003).

[2] = tested on: C. autoethanogenum DSM10061; assay: Continuous biomass monitoring with BugLab device in serum bottle; settings: before arginine depletion
Procedure: As the initial fast growth was unexpected, only a couple of samples could be used for calculating tD. Thus, a BugLab biomass monitoring device was attached to a serum bottle on 4AA medium to continuously monitor the increase of biomass before arginine is depleted from the medium. This experiment confirmed the fast growth on 4AAs before arginine depletion as tD was calculated to be ˜2 h (FIG. 10).
To obtain a more accurate value of tD on Arginine medium, a BugLab experiment was performed to continuously monitor the increase of biomass before arginine runs out. This experiment confirmed the fast growth before arginine runs out as tD was calculated to be ˜3 h (FIG. 14).

[3] = tested on: C. autoethanogenum DSM10061; assay: Heterotrophic batch growth in YE-free PETC-MES media with amino acid formulations + fructose (OD600)
Description: YE-free PETC-MES media was supplemented with various amino acid formulations—20AA, 7AA, 8AA, 14AA, 12AA, 4AA and Arginine (Table 2)—to identify if any amino acids are supporting growth. Solutions were filter sterilized and made anoxic by sparging N2.
First, a 20AA medium was designed based on the biomass amino acid composition of Clostridium acetobutylicum (Lee et al. 2008) with final amino acid concentrations theoretically supporting production of 1 gDCW/L of biomass.
Growth studies were carried out in batch cultivations in a volume of 50 mL media in 125 mL serum bottles with nitrogen in the headspace under shaking (unless otherwise noted) at 37° C. Optical density (OD) was measured at 600 nm with the reading ˜0.5 outside the anaerobic chamber against fully oxidized medium as reference.

## N=C(N)NCCC[C@H](N)C(=O)O [arginine]
[1]; 5 g arginine/L, N2 headspace, 48 hours
  growth on arginine without CO/CO2/H2 gas: no growth observed
[1]; 5 g arginine/L, until pause in growth at OD600≈0.8
  net acetate production: no net acetate production was observed
[1]; autotrophic, 5 g/L arginine, 22 psi CO/CO2/H2, until OD600≈0.8
  doubling time tD: 3.5 h
[1]; autotrophic, 5 g/L arginine, until OD600≈0.8
  specific growth rate μ: 0.198
[1]
  decrease of doubling time by arginine supplementation: 52%
[1]; listed as Arginine
  decrease of doubling time by arginine supplementation: over 50%
[2]
  doubling time tD (BugLab): ~3 h
  specific growth rate (BugLab): 0.21 h⁻¹
[3]; 5 g arginine/L + 5 g fructose/L
  doubling time tD in second stage after arginine depletion: ~40 h
[3]; vs 1 g/L yeast extract
  growth faster compared to supplementation with yeast extract: ~3 fold

Reference: patent US11965201B2, “Arginine supplementation to improve efficiency in gas fermenting acetogens” (LanzaTech NZ, Inc., priority 2015, dated 2024)
